Results taken from ChEMBL document CHEMBL1149806, “Synthesis and antiproliferative activities of isoindigo and azaisoindigo derivatives” (Eur J Med Chem, 2008).

Assays:
KB [1] = test: Antiproliferative activity against human KB cells at 10 uM after 72 hrs by MTS test; type: functional
HL-60 = test: Antiproliferative activity against human HL60 cells at 10 uM after 72 hrs by MTS test; type: functional; conditions: HL-60, 72 h
K562 = test: Antiproliferative activity against human K562 cells at 10 uM after 72 hrs by MTS test; type: functional; conditions: K562, 72 h
KB [2] = test: Antiproliferative activity against human KB cells at 0.25 nM after 72 hrs by MTS test; type: functional
KB [3] = test: Antiproliferative activity against human KB cells after 72 hrs by MTS test; type: functional, cell-based

Row | SMILES | inhibition at 10 µM (KB [1]) | inhibition at 10 µM (HL-60) | inhibition at 10 µM (K562) | inhibition at 0.00025 µM (KB [2]) | IC50 (KB [3])
1 | CC(=O)OC[C@H]1O[C@@H](N2C(=O)/C(=C3/C(=O)Nc4ccc(OC(F)(F)F)cc43)c3ccccc32)[C@H](OC(C)=O)[C@@H](OC(C)=O)[C@@H]1OC(C)=O | 0% | 4% | 3% | – | –
2 | CC(=O)O[C@@]12CO[C@@H]1C[C@H](O)[C@@]1(C)C(=O)[C@H](O)C3=C(C)[C@@H](OC(=O)[C@H](O)[C@@H](NC(=O)OC(C)(C)C)c4ccccc4)C[C@@](O)([C@@H](OC(=O)c4ccccc4)[C@H]21)C3(C)C [DOCETAXEL] | – | 46% | 32% | 71% | –
3 | O=C1Nc2ccccc2/C1=C1\C(=O)Nc2ccccc21 [ISOINDIGO] | 92% | 53% | 64% | – | 1600 nM
